The structures appear in SMILES notation. Like-named read-outs stand apart in the source and are kept apart here.

One assay deals with T1, EGFR (L858R T790M C797S) (Homo sapiens, UniProt P00533, C797S/L858R/T790M).
T1 construct: purchased SignalChem E10-122VG
Briefly: Biochemical EGFR inhibition assay (Caliper mobility shift), EGFR LRTMCS mutant. Conditions: inhibitory activity against EGFR LRTMCS mutant; apparent IC50; read-out: Ext Enz LRTMCS. In short, it runs like this: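 Apparent IC50s were derived by plotting percent activity against the log of compound concentration. Activity was measured as phosphopeptide electrophoretically separated from substrate, after reactions at room temperature reached 10% to 20% phosphorylation and were halted with 35 mM EDTA.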

Assay [1] has as its system phosphorylation of EGFR (Tyr1068) in NCI-H1975 cell line that harbors the EGFR L858R T790M mutations. Briefly: NCI-H1975 pEGFR AlphaLISA assay. Conditions: 4-5 hours incubation, read-out: Ext pEGFR H1975. Type of assay: cell-based. Put shortly:
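Phospho-EGFR Tyr1068 AlphaLISA readout: lysates taken from compound-treated H1975 cells (L858R T790M EGFR) after a 4-5 h exposure at 37 °C. Cells had adhered overnight beforehand. IC50 derived by plotting % pEGFR inhibition against log compound concentration.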
(Alpha assays give light when donor and acceptor beads are brought close together.)

Where [2] appears, read: Homo sapiens, NCI-H1975, inhibition of phosphorylation of mutant EGFR in NCI-H1975 cells.

T1 sequence (P00533 25-1210 T790M/C797S/L858R): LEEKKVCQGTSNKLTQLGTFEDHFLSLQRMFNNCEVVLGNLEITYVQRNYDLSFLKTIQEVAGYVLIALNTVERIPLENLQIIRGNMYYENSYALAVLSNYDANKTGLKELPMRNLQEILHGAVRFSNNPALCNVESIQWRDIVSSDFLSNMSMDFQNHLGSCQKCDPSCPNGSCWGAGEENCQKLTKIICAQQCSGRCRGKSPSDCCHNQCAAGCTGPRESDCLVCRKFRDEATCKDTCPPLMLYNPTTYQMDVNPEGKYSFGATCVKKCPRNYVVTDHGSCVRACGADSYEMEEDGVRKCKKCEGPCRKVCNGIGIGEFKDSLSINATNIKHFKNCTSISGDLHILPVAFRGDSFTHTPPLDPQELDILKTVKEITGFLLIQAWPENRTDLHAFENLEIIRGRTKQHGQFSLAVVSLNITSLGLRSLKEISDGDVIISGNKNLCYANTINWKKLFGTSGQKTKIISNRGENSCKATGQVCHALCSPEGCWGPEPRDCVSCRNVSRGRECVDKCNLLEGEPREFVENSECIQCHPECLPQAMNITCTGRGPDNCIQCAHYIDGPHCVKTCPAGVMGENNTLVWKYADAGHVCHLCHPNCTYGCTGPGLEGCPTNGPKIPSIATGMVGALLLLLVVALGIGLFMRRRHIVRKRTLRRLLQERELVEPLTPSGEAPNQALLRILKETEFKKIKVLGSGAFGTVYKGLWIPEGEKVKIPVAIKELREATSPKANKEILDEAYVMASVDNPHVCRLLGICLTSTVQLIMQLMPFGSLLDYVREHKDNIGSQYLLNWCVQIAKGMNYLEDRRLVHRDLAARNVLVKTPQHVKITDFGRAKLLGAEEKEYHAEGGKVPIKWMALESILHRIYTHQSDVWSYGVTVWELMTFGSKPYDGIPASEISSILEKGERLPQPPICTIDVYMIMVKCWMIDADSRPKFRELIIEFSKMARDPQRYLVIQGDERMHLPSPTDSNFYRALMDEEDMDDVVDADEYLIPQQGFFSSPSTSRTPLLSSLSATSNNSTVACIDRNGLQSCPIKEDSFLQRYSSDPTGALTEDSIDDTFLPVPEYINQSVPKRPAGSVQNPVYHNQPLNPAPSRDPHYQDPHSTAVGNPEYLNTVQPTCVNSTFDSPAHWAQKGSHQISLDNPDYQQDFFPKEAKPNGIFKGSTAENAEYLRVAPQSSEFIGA

As to `COC1CCN(c2nccc(Nc3cc4c(C(C)C)ccc(N5CC(CS(C)(=N)=O)C5)c4cn3)n2)CC1` (single isomer, unassigned) [Compound 15, (S)-imino((1-(5-isopropyl-3-((2-(4-methoxypiperidin-1-yl)pyrimidin-4-yl)amino)isoquinolin-8-yl)azetidin-3-yl)methyl)(methyl)-λ^6-sulfanone or (R)-imino((1-(5-isopropyl-3-((2-(4-methoxypiperidin-1-yl)pyrimidin-4-yl)amino)isoquinolin-8-yl)azetidin-3-yl)methyl)(methyl)-λ^6-sulfanone], the IC50 is not above 15 nM on EGFR (L858R T790M C797S) and 30.1 to 50 nM in assay [1] (setting [2]).
The matching figures for `CC(C)c1ccc(N2CC(CS(C)(=O)=O)C2)c2cnc(Nc3ccnc(N4CC[C@H](O)[C@H](F)C4)n3)cc12` [Compound 29, (3R,4S)-3-fluoro-1-[4-({8-[3-(methanesulfonylmethyl)azetidin-1-yl]-5-(propan-2-yl)isoquinolin-3-yl}amino)pyrimidin-2-yl]piperidin-4-ol]: not above 15 nM and not above 10 nM.
The corresponding values for `CC(C)c1ccc(N2CC(CS(C)(=O)=O)C2)c2cnc(Nc3ccnc(N4CC(C)(C)[C@H](O)C(F)(F)C4)n3)cc12` (single isomer, unassigned) [Compound 213, (4S)-3,3-difluoro-1-[4-({8-[3-(methanesulfonylmethyl)azetidin-1-yl]-5-(propan-2-yl)isoquinolin-3-yl}amino)pyrimidin-2-yl]-5,5-dimethylpiperidin-4-ol or (4R)-3,3-difluoro-1-[4-({8-[3-(methanesulfonylmethyl)azetidin-1-yl]-5-(propan-2-yl)isoquinolin-3-yl}amino)pyrimidin-2-yl]-5,5-dimethylpiperidin-4-ol] are not above 15 nM and not above 10 nM.
On to `CO[C@@H]1[C@H](O)CN(c2nccc(Nc3cc4c(C(C)C)cnc(N5C[C@H](CS(C)(=O)=O)[C@H]5C)c4cn3)n2)CC1(F)F` (single isomer, unassigned) [Compound 235, (3R,4R)-5,5-difluoro-1-[4-({8-[(2R,3S)-3-(methanesulfonylmethyl)-2-methylazetidin-1-yl]-5-(propan-2-yl)-2,7-naphthyridin-3-yl}amino)pyrimidin-2-yl]-4-methoxypiperidin-3-ol or (3S,4S)-5,5-difluoro-1-[4-({8-[(2R,3S)-3-(methanesulfonylmethyl)-2-methylazetidin-1-yl]-5-(propan-2-yl)-2,7-naphthyridin-3-yl}amino)pyrimidin-2-yl]-4-methoxypiperidin-3-ol], for which the IC50 at EGFR (L858R T790M C797S) was not above 15 nM; in assay [1] (setting [2]) it was not above 10 nM.
The corresponding values for `CO[C@@H]1CCN(c2nncc(Nc3cc4c(C(C)C)ccc(N5CC(CS(C)(=O)=O)C5)c4cn3)n2)C[C@@H]1F` [Compound 75, N-{3-[(3S,4R)-3-fluoro-4-methoxypiperidin-1-yl]-1,2,4-triazin-5-yl}-8-[3-(methanesulfonylmethyl)azetidin-1-yl]-5-(propan-2-yl)isoquinolin-3-amine] are not above 15 nM and not above 10 nM.
The corresponding values for `C[C@H](CO)c1ccc(N2C[C@H](CS(C)(=O)=O)[C@H]2C)c2cnc(Nc3ccnc(N4CC[C@](C)(O)[C@H](F)C4)n3)cc12` (single isomer, unassigned) [Compound 197, (3R,4S)-3-fluoro-1-[4-({5-[(2S)-1-hydroxypropan-2-yl]-8-[(2R,3S)-3-(methanesulfonylmethyl)-2-methylazetidin-1-yl]isoquinolin-3-yl}amino)pyrimidin-2-yl]-4-methylpiperidin-4-ol or (3R,4S)-3-fluoro-1-[4-({5-[(2R)-1-hydroxypropan-2-yl]-8-[(2R,3S)-3-(methanesulfonylmethyl)-2-methylazetidin-1-yl]isoquinolin-3-yl}amino)pyrimidin-2-yl]-4-methylpiperidin-4-ol] are not above 15 nM and 30.1 to 50 nM.
The matching figures for `CN[C@H]1CCN(c2nccc(Nc3cc4c(C(C)C)ccc(N5C[C@H](CS(C)(=O)=O)[C@H]5C)c4cn3)n2)C[C@H]1F` (single isomer, unassigned) [Compound 306, N-{2-[(3R,4S)-3-fluoro-4-(methylamino)piperidin-1-yl]pyrimidin-4-yl}-8-[(2R,3S)-3-(methanesulfonylmethyl)-2-methylazetidin-1-yl]-5-(propan-2-yl)isoquinolin-3-amine or N-{2-[(3S,4R)-3-fluoro-4-(methylamino)piperidin-1-yl]pyrimidin-4-yl}-8-[(2R,3S)-3-(methanesulfonylmethyl)-2-methylazetidin-1-yl]-5-(propan-2-yl)isoquinolin-3-amine]: 20.1 to 30 nM and 20.1 to 30 nM.
As to `CC(C)c1ccc(N2CC(CS(C)(=O)=O)C2)c2cnc(Nc3ccnc(N4C[C@H]5C[C@@H]4C[C@H]5O)n3)cc12` (single isomer, unassigned) [Compound 11, (1R,4R,5R)-2-[4-({8-[3-(methanesulfonylmethyl)azetidin-1-yl]-5-(propan-2-yl)isoquinolin-3-yl}amino)pyrimidin-2-yl]-2-azabicyclo[2.2.1]heptan-5-ol or (1S,4S,5S)-2-[4-({8-[3-(methanesulfonylmethyl)azetidin-1-yl]-5-(propan-2-yl)isoquinolin-3-yl}amino)pyrimidin-2-yl]-2-azabicyclo[2.2.1]heptan-5-ol], the IC50 at EGFR (L858R T790M C797S) was not above 15 nM; in assay [1] (setting [2]), 30.1 to 50 nM.
The matching figures for `CO[C@H]1CCN(c2nccc(Nc3cc4c(C(C)C)cnc(N5CC(CS(C)(=O)=O)C5)c4cn3)n2)C[C@H]1F` [Compound 71, N-{2-[(3R,4S)-3-fluoro-4-methoxypiperidin-1-yl]pyrimidin-4-yl}-8-[3-(methanesulfonylmethyl)azetidin-1-yl]-5-(propan-2-yl)-2,7-naphthyridin-3-amine]: not above 15 nM and not above 10 nM.
The matching figures for `COCCO[C@@H]1CCN(c2nccc(Nc3cc4c(C(C)C)ccc(N5CC(CS(C)(=O)=O)C5)c4cn3)n2)C[C@H]1O` (racemic) [Compound 227, (3S,4S)-1-[4-[[5-isopropyl-8-[3-(methylsulfonylmethyl)azetidin-1-yl]-3-isoquinolyl]amino]pyrimidin-2-yl]-4-(2-methoxyethoxy)piperidin-3-ol or (3R,4R)-1-[4-[[5-isopropyl-8-[3-(methylsulfonylmethyl)azetidin-1-yl]-3-isoquinolyl]amino]pyrimidin-2-yl]-4-(2-methoxyethoxy)piperidin-3-ol]: 20.1 to 30 nM and 30.1 to 50 nM.
Turning to `CO[C@@H]1[C@H](F)CN(c2nccc(Nc3cc4c(C(C)C)ccc(N5C[C@H](CS(C)(=O)=O)[C@H]5C)c4cn3)n2)C[C@@H]1O` (single isomer, unassigned) [Compound 203, (3R,4R,5S)-5-fluoro-1-[4-({8-[(2R,3S)-3-(methanesulfonylmethyl)-2-methylazetidin-1-yl]-5-(propan-2-yl)isoquinolin-3-yl}amino)pyrimidin-2-yl]-4-methoxypiperidin-3-ol or (3S,4S,5R)-5-fluoro-1-[4-({8-[(2R,3S)-3-(methanesulfonylmethyl)-2-methylazetidin-1-yl]-5-(propan-2-yl)isoquinolin-3-yl}amino)pyrimidin-2-yl]-4-methoxypiperidin-3-ol], the results for the IC50 (at EGFR (L858R T790M C797S); in assay [1] (inhibition of phosphorylation of mutant EGFR in NCI-H1975 cells)) were 15.1 to 20 nM and not above 10 nM, respectively.
For `CO[C@]1(C)CN(c2nccc(Nc3cc4c(C(C)C)ccc(N5CC(CS(C)(=O)=O)C5)c4cn3)n2)CC[C@@H]1O` (single isomer, unassigned) [Compound 94, (3R,4S)-1-[4-({8-[3-(methanesulfonylmethyl)azetidin-1-yl]-5-(propan-2-yl)isoquinolin-3-yl}amino)pyrimidin-2-yl]-3-methoxy-3-methylpiperidin-4-ol or (3S,4R)-1-[4-({8-[3-(methanesulfonylmethyl)azetidin-1-yl]-5-(propan-2-yl)isoquinolin-3-yl}amino)pyrimidin-2-yl]-3-methoxy-3-methylpiperidin-4-ol], the IC50 is not above 15 nM on EGFR (L858R T790M C797S) and 20.1 to 30 nM in assay [1] (setting [2]).
The corresponding values for `CC(C)c1ccc(N2CC(C)(CS(C)(=O)=O)C2)c2cnc(Nc3ccnc(N4CC[C@@H](O)[C@@](C)(F)C4)n3)cc12` (single isomer, unassigned) [Compound 112] are not above 15 nM and 10.1 to 20 nM.
Turning to `CO[C@@H]1CN(c2nccc(Nc3cc4c(C(C)C)ccc(N5CC(CS(C)(=O)=O)C5)c4cn3)n2)C[C@H](F)[C@@H]1O` (single isomer, unassigned) [Compound 149, (3S,4R,5R)-3-fluoro-1-[4-({8-[3-(methanesulfonylmethyl)azetidin-1-yl]-5-(propan-2-yl)isoquinolin-3-yl}amino)pyrimidin-2-yl]-5-methoxypiperidin-4-ol or (3R,4S,5S)-3-fluoro-1-[4-({8-[3-(methanesulfonylmethyl)azetidin-1-yl]-5-(propan-2-yl)isoquinolin-3-yl}amino)pyrimidin-2-yl]-5-methoxypiperidin-4-ol], the IC50 at EGFR (L858R T790M C797S) was 15.1 to 20 nM; in assay [1] (setting [2]) it was 10.1 to 20 nM.

Source of the values: patent US12172983B2, “EGFR inhibitors” (Blueprint Medicines Corporation, priority 2019, dated 2024).
